Results on 20 compounds are retold here after patent US20230183219A1, “CONDENSED SUBSTITUTED HYDROPYRROLES AS ANTAGONISTS OF THE MUSCARINIC ACETYLCHOLINE RECEPTOR M4” (Vanderbilt University, priority 2020, published 2023).

As a reminder, the IC50 is the concentration that gives 50% inhibition.

The target of the assay is T1, Human M4 (Homo sapiens, UniProt P08173).
T1 construct: Human or rat M4 cDNA, along with the chimeric G protein Gqi5, were transfected into Chinese hamster ovary (CHO-K1) cells; expressed in transfected cells; host or cells: CHO-K1 (Chinese hamster ovary, ATCC), stably co-expressing Gqi5
T1 sequence (P08173 1-479): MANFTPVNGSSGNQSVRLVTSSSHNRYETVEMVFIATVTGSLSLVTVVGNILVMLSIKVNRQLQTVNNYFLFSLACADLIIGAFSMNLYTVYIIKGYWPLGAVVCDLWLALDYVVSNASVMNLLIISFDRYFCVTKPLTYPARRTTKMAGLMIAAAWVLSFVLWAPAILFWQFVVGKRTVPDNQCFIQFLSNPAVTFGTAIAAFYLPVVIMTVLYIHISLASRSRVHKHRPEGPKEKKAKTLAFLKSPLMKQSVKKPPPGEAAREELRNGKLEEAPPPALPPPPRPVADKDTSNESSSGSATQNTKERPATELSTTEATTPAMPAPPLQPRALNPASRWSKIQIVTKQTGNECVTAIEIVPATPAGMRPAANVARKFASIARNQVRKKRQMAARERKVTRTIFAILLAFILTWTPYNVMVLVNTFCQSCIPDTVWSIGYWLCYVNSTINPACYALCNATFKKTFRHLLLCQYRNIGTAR
Nature of the assay: mAChR M4 cell-based functional assay (calcium flux, decrease of EC80 acetylcholine response). To be noted: for remaining activity at 30 µM: read-out: Human M4 Emin; for IC50: M4/Gqi5/CHO-K1 cells, decrease of response to EC80 acetylcholine. The essentials:
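IC50 reflects inhibition of an EC80 acetylcholine calcium response, fitted by four-parameter logistic equation. Fluo-4-loaded M4/Gqi5 CHO-K1 cells received compound (10-point, 1:3 series) 2 s into the FDSS read, then EC20 acetylcholine at 143 s and EC80 at 268 s.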
(In general: Calcium assays in cells follow changes in intracellular calcium, usually with a dye or a luminescent sensor.)

With `[2H][C@@]1(Oc2nnc(-c3cc(F)ccc3C)cc2C(F)(F)F)C[C@H]2CN(Cc3ccccn3)C[C@H]2C1` [Example 134, (3aR,5s,6aS)-5-((6-(5-fluoro-2-methylphenyl)-4-(trifluoro-methyl)pyridazin-3-yl)oxy)-2-(pyridin-2-ylmethyl)octahydro-cyclopenta[c]pyrrole-5-d], the IC50 came out at 2830 nM. Where the note is “% ACh maximum at 30 μM”, the remaining activity at 30 µM came to 6%.

Consider `Cc1ccc(F)cc1-c1cc(C#N)c(N[C@H]2C[C@@H]3CN(C[C@H]4CCOC4)C[C@@H]3C2)nn1` [Example 152, 6-(5-fluoro-2-methylphenyl)-3-(((3aR,5s,6aS)-2-(((R)-tetrahydrofuran-3-yl)methyl)octahydro-cyclopenta[c]pyrrol-5-yl)amino)pyridazine-4-carbonitrile], for which the IC50 is 14.9 nM. The remaining activity at 30 µM (% ACh maximum at 30 μM) was 6%.

For the compound `Cc1ccc(F)cc1-c1cc(C(F)(F)F)c(N[C@H]2C[C@@H]3CN(CC4(F)CCOCC4)C[C@@H]3C2)nn1` [Example 23, (3aR,5s,6aS)-N-(6-(5-fluoro-2-methylphenyl)-4-(trifluoromethyl)pyridazin-3-yl)-2-((4-fluorotetrahydro-2H-pyran-4-yl)methyl)octahydro-cyclopenta[c]pyrrol-5-amine], the IC50 was 23.7 nM. The remaining activity at 30 µM (% ACh maximum at 30 μM) was 3%.

For the compound `Cn1cc2cc(-c3cc(C#N)c(N[C@H]4C[C@@H]5CN(CC6CCCOC6)C[C@@H]5C4)nn3)ccc2n1` (single isomer, unassigned) [Example 159], the IC50 turned out to be 11.5 nM. For the same compound, where the note is “% ACh maximum at 30 μM”, the “Human M4 Emin” value is recorded as 10%.

`[2H][C@@]1(Oc2cc(C(F)(F)F)c(-c3cc(F)ccc3C)nn2)C[C@H]2CN(CC3CCOCC3)C[C@H]2C1` [Example 133, (3aR,5s,6aS)-5-((6-(5-fluoro-2-methylphenyl)-5-(trifluoromethyl)pyridazin-3-yl)oxy)-2-((tetrahydro-2H-pyran-4-yl)methyl)octahydro-cyclopenta[c]pyrrole-5-d]: the IC50 is 217 nM. Further, the remaining activity at 30 µM (% ACh maximum at 30 μM) was determined as 3%.

With `Cc1ccc(F)cc1-c1cc(C(F)(F)F)c(N[C@H]2C[C@@H]3CN(Cc4ccccn4)C[C@@H]3C2)nn1` [Example 103, (3aR,5s,6aS)-N-(6-(5-fluoro-2-methylphenyl)-4-(trifluoromethyl)pyridazin-3-yl)-2-(pyridin-2-ylmethyl)octahydro-cyclopenta[c]pyrrol-5-amine], the half-inhibitory concentration (IC50) stood at 95.7 nM. Further, the remaining activity at 30 µM (% ACh maximum at 30 μM) was determined as 3%.

For the compound `Fc1ccccc1-c1cc(C(F)(F)F)c(N[C@H]2C[C@@H]3CN(Cc4ccccn4)C[C@@H]3C2)nn1` [Example 101, (3aR,5s,6aS)-N-(6-(2-fluorophenyl)-4-(trifluoro-methyl)pyridazin-3-yl)-2-(pyridin-2-ylmethyl)octahydro-cyclopenta[c]pyrrol-5-amine], the half-maximal inhibitory concentration (IC50) worked out at 674 nM. Further, under “% ACh maximum at 30 μM”, the remaining activity at 30 µM worked out at 3%.

For `COc1cc(F)c(-c2cc(C(F)(F)F)c(N[C@H]3C[C@@H]4CN(CC5CCOCC5)C[C@@H]4C3)nn2)cc1F` [Example 78, (3aR,5s,6aS)-N-(6-(2,5-difluoro-4-methoxyphenyl)-4-(trifluoromethyl)pyridazin-3-yl)-2-((tetrahydro-2H-pyran-4-yl)methyl)octahydro-cyclopenta[c]pyrrol-5-amine], the half-inhibitory concentration (IC50) is 172 nM. Further, the remaining activity at 30 µM (% ACh maximum at 30 μM) is 3%.

As for `FC(F)(F)c1cc(-c2ccc3c(c2)CCO3)nnc1N[C@H]1C[C@@H]2CN(CC3CCOCC3)C[C@@H]2C1` [Example 88, (3aR,5s,6aS)-N-(6-(2,3-dihydrobenzofuran-5-yl)-4-(trifluoromethyl)pyridazin-3-yl)-2-((tetrahydro-2H-pyran-4-yl)methyl)octahydro-cyclopenta[c]pyrrol-5-amine], the IC50 stood at 47.6 nM. For the same compound, the remaining activity at 30 µM (% ACh maximum at 30 μM) turned out to be 3%.

As for `Cn1cc2cc(-c3cc(C#N)c(N[C@H]4C[C@@H]5CN(C[C@H]6COCCO6)C[C@@H]5C4)nn3)ccc2n1` [Example 156, 3-(((3aR,5s,6aS)-2-(((S)-1,4-dioxan-2-yl)methyl)octahydro-cyclopenta[c]pyrrol-5-yl)amino)-6-(2-methyl-2H-indazol-5-yl)pyridazine-4-carbonitrile], the half-inhibitory concentration (IC50) came out at 10.1 nM. The remaining activity at 30 µM (% ACh maximum at 30 μM) is 12%.

As to `CCc1ccc(F)c(-c2cc(C(F)(F)F)c(N[C@H]3C[C@@H]4CN(CC5CCOCC5)C[C@@H]4C3)nn2)c1` [Example 95, (3aR,5s,6aS)-N-(6-(5-ethyl-2-fluorophenyl)-4-(trifluoromethyl)pyridazin-3-yl)-2-((tetrahydro-2H-pyran-4-yl)methyl)octahydro-cyclopenta[c]pyrrol-5-amine], the IC50 came out at 931 nM. Besides, the remaining activity at 30 µM (% ACh maximum at 30 μM) worked out at 3%.

As to `Cc1ccc(-c2cc(C(F)(F)F)c(N[C@H]3C[C@@H]4CN(CC5CCOCC5)C[C@@H]4C3)nn2)c(F)c1` [Example 79, (3aR,5s,6aS)-N-(6-(2-fluoro-4-methylphenyl)-4-(trifluoromethyl)pyridazin-3-yl)-2-((tetrahydro-2H-pyran-4-yl)methyl)octahydro-cyclopenta[c]pyrrol-5-amine], the concentration for half-maximal inhibition (IC50) worked out at 349 nM. For the same compound, for the setting “% ACh maximum at 30 μM”, the remaining activity at 30 µM amounted to 3%.

For `F[C@H]1CCN(c2cc(C(F)(F)F)c(N[C@H]3C[C@@H]4CN(CC5CCOCC5)C[C@@H]4C3)nn2)C1` [Example 139, (3aR,5s,6aS)-N-(6-((S)-3-fluoropyrrolidin-1-yl)-4-(trifluoromethyl)pyridazin-3-yl)-2-((tetrahydro-2H-pyran-4-yl)methyl)octahydro-cyclopenta[c]pyrrol-5-amine], the IC50 amounted to 7.2 nM. For the same compound, the remaining activity at 30 µM (% ACh maximum at 30 μM) was 2%.

As to `Cc1ccncc1-c1cc(C(F)(F)F)c(N[C@H]2C[C@@H]3CN(CC4CCOCC4)C[C@@H]3C2)nn1` [Example 67, (3aR,5s,6aS)-N-(6-(4-methylpyridin-3-yl)-4-(trifluoromethyl)pyridazin-3-yl)-2-((tetrahydro-2H-pyran-4-yl)methyl)octahydro-cyclopenta[c]pyrrol-5-amine], the half-maximal inhibitory concentration (IC50) came out at 133 nM. The remaining activity at 30 µM (% ACh maximum at 30 μM) was determined as 3%.

For `Cc1ccc(F)cc1-c1cc(C(F)(F)F)c(N[C@H]2C[C@@H]3CN(C[C@@H]4CC5CCC4O5)C[C@@H]3C2)nn1` (stereo partly drawn) [Example 24, (3aR,5s,6aS)-2-(((2S)-7-oxabicyclo[2.2.1]heptan-2-yl)methyl)-N-(6-(5-fluoro-2-methylphenyl)-4-(trifluoromethyl)pyridazin-3-yl)octahydro-cyclopenta[c]pyrrol-5-amine], the IC50 is 7 nM. For the same compound, where the note is “% ACh maximum at 30 μM”, the remaining activity at 30 µM was found to be 3%.

As to `Cc1ccc(F)cc1-c1cc(C(F)(F)F)c(N[C@H]2C[C@@H]3CN(C[C@H]4COCCO4)C[C@@H]3C2)nn1` [Example 22, (3aR,5s,6aS)-2-(((S)-1,4-dioxan-2-yl)methyl)-N-(6-(5-fluoro-2-methylphenyl)-4-(trifluoromethyl)pyridazin-3-yl)octahydro-cyclopenta[c]pyrrol-5-amine], the IC50 was 2.7 nM. Besides, where the note is “% ACh maximum at 30 μM”, the remaining activity at 30 µM was found to be 3%.

For the compound `F[C@@H]1CCN(c2cc(C(F)(F)F)c(N[C@H]3C[C@@H]4CN(CC5CCOCC5)C[C@@H]4C3)nn2)C1` [Example 140, (3aR,5s,6aS)-N-(6-((R)-3-fluoropyrrolidin-1-yl)-4-(trifluoromethyl)pyridazin-3-yl)-2-((tetrahydro-2H-pyran-4-yl)methyl)octahydro-cyclopenta[c]pyrrol-5-amine], the IC50 stood at 9.2 nM. The remaining activity at 30 µM (% ACh maximum at 30 μM) turned out to be 2%.

As for `C[C@H]1CCCN(c2cc(C(F)(F)F)c(N[C@H]3C[C@@H]4CN(CC5CCOCC5)C[C@@H]4C3)nn2)C1` [Example 137, (3aR,5s,6aS)-N-(6-((S)-3-methylpiperidin-1-yl)-4-(trifluoro-methyl)pyridazin-3-yl)-2-((tetrahydro-2H-pyran-4-yl)methyl)octahydro-cyclopenta[c]pyrrol-5-amine], the half-maximal inhibitory concentration (IC50) was found to be 14.3 nM. Under “% ACh maximum at 30 μM”, the remaining activity at 30 µM came out at 2%.

For `Cc1ccc(F)cc1-c1cc(C(F)(F)F)c(N[C@H]2C[C@@H]3CN(CC4CCOCC4)C[C@@H]3C2)nn1` [compound 11], the concentration for half-maximal inhibition (IC50) was determined as 2.41 nM. Under “% ACh maximum at 30 μM”, the remaining activity at 30 µM was found to be 4%.

As for `Fc1cc(F)c(F)c(-c2cc(C(F)(F)F)c(N[C@H]3C[C@@H]4CN(CC5CCOCC5)C[C@@H]4C3)nn2)c1` [Example 43, (3aR,5s,6aS)-2-((tetrahydro-2H-pyran-4-yl)methyl)-N-(4-(trifluoromethyl)-6-(2,3,5-trifluorophenyl)pyridazin-3-yl)octahydro-cyclopenta[c]pyrrol-5-amine], the concentration for half-maximal inhibition (IC50) was 290 nM. The remaining activity at 30 µM (% ACh maximum at 30 μM) is 3%.
